{
  "source": "paper PMC5983862",
  "about": "“Insight into small molecule binding to the neonatal Fc receptor by X-ray crystallography and 100 kHz magic-angle-spinning NMR” (PLoS Biology, 2018)",
  "key": {"[1]": {"target": "T1, neonatal Fc receptor (FcRn) α-chain, extracellular domain (FcRnECD) (Homo sapiens, UniProt P55899+P61769)", "T1 construct": "gene FCGRT; extracellular domain (ECD) (amino acids 1–297) of human FcRn α-chain, with human β2m; with β2-microglobulin (β2m, B2M)", "T1 sequence (P55899 24-297)": "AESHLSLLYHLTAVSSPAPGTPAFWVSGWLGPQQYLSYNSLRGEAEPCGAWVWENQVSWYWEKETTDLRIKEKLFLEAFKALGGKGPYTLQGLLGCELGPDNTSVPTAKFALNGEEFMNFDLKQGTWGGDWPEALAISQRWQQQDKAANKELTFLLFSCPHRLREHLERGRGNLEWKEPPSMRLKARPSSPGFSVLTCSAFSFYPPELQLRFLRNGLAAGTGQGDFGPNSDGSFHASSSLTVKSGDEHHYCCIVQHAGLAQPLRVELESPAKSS", "T1 sequence (P61769 21-119)": "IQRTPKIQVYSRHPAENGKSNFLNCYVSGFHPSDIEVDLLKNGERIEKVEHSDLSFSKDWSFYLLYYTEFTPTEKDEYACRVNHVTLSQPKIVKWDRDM", "assay": "affinity measurement (SPR implied)", "assay_type": "binding"}, "[2]": {"target": "T1, neonatal Fc receptor (FcRn) α-chain, extracellular domain (FcRnECD)", "assay": "SPR Kd; X-ray crystal structure; […] CPMG and STD NMR fragment screen", "assay_type": "binding"}, "[3]": {"target": "T1, neonatal Fc receptor (FcRn) α-chain, extracellular domain (FcRnECD)", "assay": "SPR Kd; X-ray crystal structure; MAS NMR chemical-shift perturbations", "assay_type": "binding"}, "[4]": {"target": "soluble extracellular domain of the neonatal Fc receptor (FcRnECD), heterodimer of α-chain and β2m, from insect cells (human)", "assay": "crystal structure; FcRnECD from insect cells; crystals at pH 3 (PEG 6000, citric acid/ammonium citrate) and at pH 8.5 (Bis-Tris propane, NaI, PEG 3350); compounds soaked into pH 3 crystals; two heterodimers in the asymmetric unit"}},
  "note": "pKd: −log10 of the molar value.",
  "data": [
    {"compound": "CC(=O)C1=C(C)Nc2ncnn2C1c1cc(F)cc(F)c1", "note": "(racemic) [1-[7-(3,5-Difluorophenyl)-5-methyl-4,7-dihydro-[1,2,4]triazolo[1,5-a]pyrimidin-6-yl]ethanone]", "values": [
      {"measurement": "pKd", "setting": "[1]", "result": 5.62}
    ]},
    {"compound": "CC(=O)C1=C(C)Nc2ncnn2C1c1cccc(F)c1", "note": "(racemic) [UCB-FcRn-84, 1-[7-(3-fluorophenyl)-5-methyl-4,7-dihydro-[1,2,4]triazolo[1,5-a]pyrimidin-6-yl]ethanone]", "values": [
      {"measurement": "pKd", "setting": "[2]", "result": "~4.10"}
    ]},
    {"compound": "COC(=O)C1=C(c2cccnc2)Nc2ncnn2C1c1cc(F)cc(F)c1", "note": "(stereo not shown) [UCB-FcRn-303, Methyl 7-(3,5-difluorophenyl)-5-(3-pyridyl)-4,7-dihydro-[1,2,4]triazolo[1,5-a]pyrimidine-6-carboxylate]", "values": [
      {"measurement": "pKd", "setting": "[3]", "result": 5.62}
    ]},
    {"compound": "soluble extracellular domain of the neonatal Fc receptor (FcRnECD), heterodimer of α-chain and β2m, from insect cells (complex)", "values": [
      {"measurement": "stoichiometry N", "setting": "[4]", "result": 2}
    ]}
  ]
}
